Results reported in publication PMC13079941 (Proceedings of the National Academy of Sciences of the …, 2026).

Biological target: T1, CsRD21a (Citrus sinensis, UniProt A0ACB8KUT6)
T1 construct: gene KPL71_016607; full-length, untagged, expressed transiently in Nicotiana benthamiana; secreted, prodomain removed in planta, active forms 25-35 kDa; concentrated apoplastic fluid, not purified
Test: competitive activity-based protein profiling, DCG-04 / streptavidin-HRP blot
Format: biochemical
Conditions: apoplastic fluid; 30 min preincubation; 50 mM sodium acetate pH 5.0, 5 mM DTT, room temperature

T1 sequence (A0ACB8KUT6 139-468): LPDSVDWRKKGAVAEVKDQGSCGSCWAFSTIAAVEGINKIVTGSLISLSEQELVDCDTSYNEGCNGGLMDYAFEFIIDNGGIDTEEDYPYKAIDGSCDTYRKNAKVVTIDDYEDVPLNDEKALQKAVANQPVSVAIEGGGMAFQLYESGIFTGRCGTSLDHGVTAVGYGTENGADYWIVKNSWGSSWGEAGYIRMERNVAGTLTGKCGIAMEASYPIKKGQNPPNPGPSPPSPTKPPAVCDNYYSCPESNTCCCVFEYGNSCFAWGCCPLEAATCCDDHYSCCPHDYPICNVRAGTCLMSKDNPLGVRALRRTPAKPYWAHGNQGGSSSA

## CC(C)C[C@H](NC(=O)[C@H]1O[C@@H]1C(=O)O)C(=O)NCCCCNC(=N)N [E-64]
  decrease of DCG-04 labelling, dosage-dependent: This signal decreased in the presence of the cysteine protease inhibitor E-64 in a dosage-dependent manner
